What all share (type): in vivo, human
The test system of assay [1] is colorectal cancer (CRC) patients. As to the kind of experiment: Clinical trial: response and disease control to CAR T therapy with or without dasatinib. Particulars: patients who got dasatinib. On the procedure:
(§1) This system was implemented in a clinical trial involving 35 colorectal cancer (CRC) patients, which were treated with mixed population of cells including GCC CAR T cells. Diarrhea, a common side effect, typically presented as early as day 7 (median=9, range 7-15) at a grade two severity or higher. The primary treatment for this was immediate administration of infliximab and, in some cases, dasatinib.
(§2) For the 1×10^6 CAR T/kg of body weight dose, half of the patients managed their diarrhea through supportive care and antidiarrheal medication. Around 85% experienced grade 2 or higher diarrhea, 67% of whom responded well to a single dose of infliximab. At a higher dose of 2×10^6 CAR T/kg bodyweight, only 13% of patients could control diarrhea with supportive care or antidiarrheal drugs, and all patients experienced a grade 2 or higher diarrhea, but only 43% responded to a single infliximab dose. […] In such cases, dasatinib was administered at 100 mg/day for over ten consecutive days until the patient's side effects reduced to grade 1 or less, and the patient was ready for discharge.

The subject of assay [2] is Cytokine Release Syndrome (CRS). As to the kind of experiment: Cytokine Release Syndrome (CRS) management after CAR T therapy. Particulars: grade 2 fever not resolved within 6 hours with conventional antipyretic methods. On the procedure: This fever typically occurs earliest on day 3 (median is day 5, range is day 3-12). Tocilizumab administration results in remission in 90% of cases. However, if 24 hours after administering tocilizumab, the patient still presents with a grade 2 or higher fever or a refractory fever, treatment with corticosteroids should be initiated following ASCO guidelines. The remaining 10% of patients typically responds well to corticosteroids. If there is no improvement within 24 hours after this step, the administration of dasatinib at 100 mg once daily for 2-3 days can be administered.

Assay [3] deals with colorectal cancer (CRC) patients. Nature of the assay: Clinical trial of mixed population of cells including GCC CAR T cells: diarrhea side effect and its management. On the procedure:
as §1, §2

The record followed here is patent publication US20240058337A1, “Managing Side Effects in T Cell Therapy” (Innovative Cellular Therapeutics Holdings, Ltd., priority 2022, published 2024).

`Cc1nc(Nc2ncc(C(=O)Nc3c(C)cccc3Cl)s2)cc(N2CCN(CCO)CC2)n1` [dasatinib]: in assay [1] (1 million cells/kg), the “Disease Control Rate” value worked out at 33.3% and the “Response Rate to CAR T Therapy” value was found to be 0%. Moreover, in assay [1] (2 million+ cells/kg), the “Disease Control Rate” value is recorded as 75% and the “Response Rate to CAR T Therapy” value is 50%.

Tocilizumab: the “remission of grade 2 fever (CRS) after tocilizumab administration, cases” value in assay [2] is on record as 90%.

Take infliximab: the “patients with grade 2 or higher diarrhea who responded well to a single dose of infliximab” value in assay [3] (1×10^6 CAR T/kg of body weight) is 67%. Besides, the “patients with grade 2 or higher diarrhea who responded to a single infliximab dose” value in assay [3] (2×10^6 CAR T/kg bodyweight) was determined as 43%. In assay [3] (3×10^6 CAR T/kg body weight), the “patients who benefitted from a single dose of infliximab” value is recorded as “fewer patients benefitted”.
